Assay results taken from patent US20090111997A1, “Method of Generating Amorphous Solid for Water-Insoluble Pharmaceuticals” (priority 2005, published 2009).

Protocol: The term “water insoluble pharmaceutical” means a pharmaceutical active ingredient that is insoluble or nearly insoluble in water with a dose number greater than 1. The dose number is defined as follows:
Dose number=theoretical dose in mg/water solubility×250 ml.
For example, if the theoretical dose of the drug is 20 mg per dose. […] Another example of a water insoluble pharmaceutical includes the compound of Formula I

CC[C@H](C)C(=O)O[C@H]1C[C@@H](C)C=C2C=C[C@H](C)[C@H](CC[C@@H]3C[C@@H](O)CC(=O)O3)[C@H]21 [lovastatin]
dose number (theoretical dose in mg/water solubility×250 ml): > 8
